In patent US20090203577A1 (EXELIXIS, INC., priority 2005, published 2009):
Values after ≈ are worked out from the molar mass of the structure shown.

Legend:
[1] = target: T1, human farnesoid X receptor (Homo sapiens, UniProt Q96RI1); assay: FXR in vitro assays (farnesoid X receptor/ECREx7 co-transfection assay, TR-FRET assay), Table I; assay type: cell-based; conditions: for EC50: agonist activity, one or more of the in vitro assays, read-out: EC50; for Emax: read-out: % Efficacy
T1 construct: CMX-farnesoid X receptor (full length human farnesoid X receptor); expressed in transfected cells; host or cells: CV-1 African Green Monkey Kidney cells
T1 sequence (Q96RI1 1-472 isoform Q96RI1-2): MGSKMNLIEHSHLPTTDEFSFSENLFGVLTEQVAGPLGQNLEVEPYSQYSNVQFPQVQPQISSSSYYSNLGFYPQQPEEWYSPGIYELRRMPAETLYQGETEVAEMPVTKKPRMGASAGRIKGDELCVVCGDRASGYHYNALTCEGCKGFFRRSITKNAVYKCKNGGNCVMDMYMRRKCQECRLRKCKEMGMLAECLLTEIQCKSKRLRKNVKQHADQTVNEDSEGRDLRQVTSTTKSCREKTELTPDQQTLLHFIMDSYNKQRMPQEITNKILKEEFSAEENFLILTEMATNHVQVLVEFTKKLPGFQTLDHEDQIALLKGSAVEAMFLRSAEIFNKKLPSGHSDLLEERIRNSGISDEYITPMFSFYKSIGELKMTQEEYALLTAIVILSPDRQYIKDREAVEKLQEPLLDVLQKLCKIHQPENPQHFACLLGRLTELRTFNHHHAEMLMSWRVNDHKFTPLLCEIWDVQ
T1 sequence (P19793 1-462 partner): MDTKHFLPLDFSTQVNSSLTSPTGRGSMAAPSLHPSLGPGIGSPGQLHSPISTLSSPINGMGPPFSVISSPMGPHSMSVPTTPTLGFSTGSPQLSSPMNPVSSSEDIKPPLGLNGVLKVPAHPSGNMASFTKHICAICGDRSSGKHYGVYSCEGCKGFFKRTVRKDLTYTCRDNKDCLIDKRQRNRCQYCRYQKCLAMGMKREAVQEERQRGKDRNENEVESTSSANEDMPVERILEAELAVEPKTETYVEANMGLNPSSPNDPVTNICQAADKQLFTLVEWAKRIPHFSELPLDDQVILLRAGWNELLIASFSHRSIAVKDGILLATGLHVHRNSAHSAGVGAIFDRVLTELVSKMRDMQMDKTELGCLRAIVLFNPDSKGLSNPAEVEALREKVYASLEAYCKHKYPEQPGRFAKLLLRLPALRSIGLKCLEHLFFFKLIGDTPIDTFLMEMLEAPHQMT
How it was run: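 CV-1 monkey kidney cells transfected for an FXR/ECREx7 luciferase co-transfection reporter; luciferase read 18-20 h later in lysates. 8-point dose-response at ½-log spacing, 4 wells per point; EC50/IC50 from four-parameter Hill fit, averaged over at least 3 independent experiments.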

physchem = conditions: pH 7.4, aqueous buffer, kinetic from dmso stock
Procedure: The kinetic solubility of test compounds in buffer was evaluated using a 96 well filtration plate format. A 500 μM assay solution in PBS, pH7.4 (or other assay buffer, as needed) was generated form a DMSO stock solution (up to 10 mM). Samples were transferred to a 96 Millipore MultiScreen HTS 96-well Filter plate (Cat# MSSLBPC10) mixed by shaking for 1.5 hours and processed by filtration prior to quantitation by HPLC-UV. Amiodarone and testosterone were used as reference controls.

CCCN1CCN(C(=O)N2C=C(C(=O)OC(C)C)c3[nH]c4ccccc4c3C(C)(C)C2)CC1 [Example 31]
EC50 [1]: 100 to 1000 nM | Emax [1]: > 100% | solubility kinetic at 1.5 h (physchem): 1 to 10 µM (≈ 0.453 to 4.53 µg/mL)

CCN(CC)C1CCN(C(=O)N2C=C(C(=O)OC(C)C)c3[nH]c4ccccc4c3C(C)(C)C2)CC1 [Example 33, 1-methylethyl 3-{[4-0 (diethylamino)piperidin-1-yl]carbonyl}-1,1-dimethyl-1,2,3,6-tetrahydroazepino[4,5-b]indole-5-carboxylate]
EC50 [1]: 1000 to 10000 nM | Emax [1]: 60 to 80% | solubility kinetic at 1.5 h (physchem): > 10 µM

CC(C)CCC(=O)N1C=C(C(=O)OC(C)C)c2[nH]c3ccccc3c2C(C)(C)C1 [Example 34, 1-methylethyl 1,1-dimethyl-3-(4-methylpentanoyl)-1,2,3,6-tetrahydro azepino [4,5-b]indole-5-carboxylate]
EC50 [1]: 10 to 100 nM | Emax [1]: > 100% | solubility kinetic at 1.5 h (physchem): > 10 µM

CC(C)OC(=O)C1=CN(C(=O)N2CCN(C)CC2)CC(C)(C)c2c1[nH]c1cc(F)ccc21 [Example 35, 1-methylethyl 8-fluoro-1,1-dimethyl-3-[(4-methylpiperazin-1-yl)carbonyl]-1,2,3,6-tetrahydroazepino[4,5-b]indole-5-carboxylate]
EC50 [1]: 10 to 100 nM | Emax [1]: > 100% | solubility kinetic at 1.5 h (physchem): > 10 µM

CCN1CCN(C(=O)N2C=C(C(=O)OC(C)C)c3[nH]c4cc(F)ccc4c3C(C)(C)C2)CC1 [Example 36, 1-methylethyl 3-[(4-ethylpiperazin-1-yl)carbonyl]-8-fluoro-1,1-dimethyl-1,2,3,6-tetrahydroazepino[4,5-b]indole-5-carboxylate]
EC50 [1]: 10 to 100 nM | Emax [1]: > 100% | solubility kinetic at 1.5 h (physchem): > 10 µM

CC(C)OC(=O)C1=CN(C(=O)N2CCN(CC(=O)N3CCCC3)CC2)CC(C)(C)c2c1[nH]c1ccccc21 [Example 37, 1-methylethyl 1,1-dimethyl-3-{[4-(2-oxo-2-pyrrolidin-1-ylethyl)piperazin-1-yl]carbonyl}-1,2,3,6-tetrahydroazepino [4,5-b]indole-5-carboxylate]
EC50 [1]: 100 to 1000 nM | Emax [1]: > 100% | solubility kinetic at 1.5 h (physchem): > 10 µM

CCN(CC)CCN1CCN(C(=O)N2C=C(C(=O)OC(C)C)c3[nH]c4ccccc4c3C(C)(C)C2)CC1 [Example 38, 1-methylethyl 3-({4-[2-(diethylamino)ethyl]piperazin-1-yl}carbonyl)-1,1-dimethyl-1,2,3,6-tetrahydroazepino[4,5-b]indole-5-carboxylate]
EC50 [1]: 1000 to 10000 nM | Emax [1]: 60 to 80% | solubility kinetic at 1.5 h (physchem): > 10 µM

CC(C)OC(=O)C1=CN(C(=O)N2CCCC(N(C)C)C2)CC(C)(C)c2c1[nH]c1ccccc21 (stereo not drawn) [Example 39, 1-methylethyl 3-{[3-(dimethylamino)piperidin-1-yl]carbonyl}-1,1-dimethyl-1,2,3,6-tetrahydroazepino[4,5-b]indole-5-carboxylate]
EC50 [1]: 100 to 1000 nM | Emax [1]: > 100% | solubility kinetic at 1.5 h (physchem): > 10 µM

CC(C)OC(=O)C1=CN(C(=O)N2CCC(N3CCN(C)CC3)CC2)CC(C)(C)c2c1[nH]c1ccccc21 [Example 41, 1-methylethyl 1,1-dimethyl-3{[4-(4-methylpiperazin-1-yl)piperidin-1-yl]carbonyl}-1,2,3,6-tetrahydroazepino [4,5-b]indole-5-carboxylate]
EC50 [1]: 1000 to 10000 nM | Emax [1]: 40 to 60% | solubility kinetic at 1.5 h (physchem): > 10 µM

CC(C)OC(=O)C1=CN(C(=O)N2C[C@@H]3C[C@H]2CN3C)CC(C)(C)c2c1[nH]c1ccccc21 [Example 42, 1-methylethyl 1,1-dimethyl-3-{[(1S,4S)-5-methyl-2,5-diazabicyclo[2.2.1]hept-2-yl]carbonyl}-1,2,3,6-tetrahydroazepino [4,5-b]indole-5-carboxylate]
EC50 [1]: 100 to 1000 nM | Emax [1]: > 100% | solubility kinetic at 1.5 h (physchem): > 10 µM
